For test [1], the target named is BTK (Homo sapiens, UniProt Q06187). Briefly: BTK cell degradation in TMD-8 cells, HTRF assay. Format: cell-based. Also on record: endogenous in cells; host or cells: TMD-8 cells. Particulars: 6 h treatment, IC50 (DC50) of BTK degradation. The method, then:
TMD-8 cells were treated with compounds diluted in 0.2% DMSO, dilution was done according to the following protocol: (1) making 500× stock solution in DMSO from 1 mM by 6-fold dilution, total 8 doses were included; (2) making 2× solution in cell culture medium by transferring 0.5 μl 500× stock solution into 125 μl medium; (3) adding 15 μl of 2× solution to cells for incubation of 6 h.
After 6 h treatment, 10 μl 14×lysis buffer was added to each well; the plate was sealed and incubated for 30 min at room temperature on a plate shaker; Once the cells was lysed, 16 μL of cell lysate were transferred to a PE 384-well HTRF detection plate; 4 μL of pre-mixed HTRF antibodies were added to each well; the plate was covered with a plate sealer, and then spinned at 1000 rpm for 1 min, then incubated overnight at room temperature; the results were read on BMG PheraStar with HTRF protocol (337 nm-665 nm-620 nm).
The inhibition (degradation) percentage of the compound was calculated by the following equation: Inhibition percentage of Compound=100−100×(Signal-low control)/(High control-low control), wherein signal=each test compound group
High control=Cell group with added DMSO and without compound, indicating microplate readings without BTK degradation;
Dmax is the maximum percentage of inhibition (degradation).
The IC50 (DC50) value of a compound can be obtained by fitting the following equation
Y=Bottom+(TOP−Bottom)/(1+((IC50/X)^hillslope))
(§1) wherein, X and Y are known values, and IC50, Hillslope, Top and Bottom are the parameters obtained by fitting with software. Y is the inhibition percentage (calculated from the equation), X is the concentration of the compound; IC50 is the concentration of the compound when the 50% inhibition is reached. The smaller the IC50 value is, the stronger the inhibitory ability of the compound is. Vice versa, the higher the IC50 value is, the weaker the ability the inhibitory ability of the compound is; Hillslope represents the slope of the fitted curve, generally around 1*; Bottom represents the minimum value of the curve obtained by data fitting, which is generally 0%±20%; Top represents the maximum value of the curve obtained by data fitting, which is generally 100%±20%. The experimental data were fitted by calculating and analyzing with Dotmatics data analysis software.

In test [2] the test system is HEK-293 cells. Put plainly: HEK-293 cytotoxicity detection (CellTiter-Glo). Format: cell-based. The conditions noted are these: Homo sapiens, 72 h, 72 h incubation, CellTiter-Glo luminescence, read-out: HEK293. On the procedure: HEK-293 cells were treated with compounds diluted in 0.2% DMSO, dilution was done according to the following protocol: (1) making 500× stock solution in DMSO from 5 mM by 4-fold dilution, total 8 doses were included; (2) making 2× solution in cell culture medium by transferring 0.5 ul 500× stock solution into 125 ul medium; (3) adding 50 ul of 2× solution to cells for incubation of 72 h.
25 μl of the CellTiter-Glo®Reagent [(Promega)—Cat No. G7572] was added to each well in the 96-well plate. The contents were mixed for 2 minutes on an orbital shaker to induce cell lysis. The plate was then allowed to incubate at room temperature for 10 minutes to stabilize luminescent signal. Luminescence was recorded on BMG PheraStar with luminescence protocol.
The inhibition percentage of the compound was calculated by the following equation: Inhibition percentage of Compound=100−100×(Signal-low control)/(High control-low control), wherein signal=each test compound group
High control=Cell group with added DMSO and without compound, indicating cells proliferation with no inhibition;
Imax is the maximum percentage of inhibition.
The IC50 value of a compound can be obtained by fitting the following equation
as §1, with “Wherein,” for “wherein,”
(In general: In ATP-based viability assays light output follows the ATP content of the culture.)

We go through eight compounds from US20240246977A1, “DEGRADATION OF BRUTON'S TYROSINE KINASE (BTK) BY CONJUGATION OF BTK INHIBITORS WITH E3 LIGASE LIGAND AND METHOD OF USE” (BeiGene Switzerland GmbH, priority 2021, published 2024).

The structures appear in SMILES notation.

Sequence of BTK (Q06187 whole entry): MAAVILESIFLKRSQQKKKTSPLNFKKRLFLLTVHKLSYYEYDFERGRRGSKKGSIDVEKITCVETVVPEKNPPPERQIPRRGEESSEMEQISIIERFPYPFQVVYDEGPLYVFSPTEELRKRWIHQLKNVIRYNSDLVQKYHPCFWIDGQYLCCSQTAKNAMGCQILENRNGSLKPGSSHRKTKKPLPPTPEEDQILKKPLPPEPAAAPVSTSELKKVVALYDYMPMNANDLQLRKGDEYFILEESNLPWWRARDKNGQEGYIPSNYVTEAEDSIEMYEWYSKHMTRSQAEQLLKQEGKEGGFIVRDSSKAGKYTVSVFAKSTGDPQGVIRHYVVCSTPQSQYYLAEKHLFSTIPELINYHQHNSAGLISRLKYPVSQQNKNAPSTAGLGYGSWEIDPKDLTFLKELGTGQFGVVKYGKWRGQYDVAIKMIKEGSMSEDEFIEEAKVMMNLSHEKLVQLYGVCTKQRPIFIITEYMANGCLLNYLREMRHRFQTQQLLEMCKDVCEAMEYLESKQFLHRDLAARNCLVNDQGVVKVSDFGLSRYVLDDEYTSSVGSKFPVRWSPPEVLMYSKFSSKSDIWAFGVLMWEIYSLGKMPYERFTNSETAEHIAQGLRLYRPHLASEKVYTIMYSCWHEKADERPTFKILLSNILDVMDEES

In test [1], `NC(=O)c1c(-c2ccc(Oc3ccccc3)cc2)nn2c1Nc1cc(C(=O)N3CCC(CN4CCN(c5cc6c(cc5F)C(=O)N(C5CCC(=O)NC5=O)C6=O)CC4)CC3)ccc1CC2` (stereo not shown) [Example A20, 6-(4-((4-(2-(2,6-dioxopiperidin-3-yl)-6-fluoro-1,3-dioxoisoindolin-5-yl)piperazin-1-yl)methyl)piperidine-1-carbonyl)-2-(4-phenoxyphenyl)-9,10-dihydro-4H-benzo[d]pyrazolo[1,5-a][1,3]diazepine-3-carboxamide] gave a DC50 of 13.4 nM. In addition, the IC50 in test [2] is above 10000 nM.

As for `NC(=O)c1c(-c2ccc(Oc3ccccc3)cc2)nn2c1Nc1ccc(N3CCN(CC4CCN(c5ccc(N6CCC(=O)NC6=O)cc5)CC4)CC3)cc1CC2` [Example A21, 7-(4-((1-(4-(2,4-dioxotetrahydropyrimidin-1(2H)-yl)phenyl)piperidin-4-yl)methyl)piperazin-1-yl)-2-(4-phenoxyphenyl)-9,10-dihydro-4H-benzo[d]pyrazolo[1,5-a][1,3]diazepine-3-carboxamide], the DC50 in test [1] turned out to be 1.51 nM. Further, the IC50 in test [2] was found to be 62.1 nM.

On to `NC(=O)c1c(-c2ccc(Oc3ccccc3)cc2)nn2c1Nc1cc(C3CCN(CCC4CCN(c5ccc(N6CCC(=O)NC6=O)cc5)CC4)CC3)ccc1CC2` [Example A23, 6-(1-(2-(1-(4-(2,4-dioxotetrahydropyrimidin-1(2H)-yl)phenyl)piperidin-4-yl)ethyl)piperidin-4-yl)-2-(4-phenoxyphenyl)-9,10-dihydro-4H-benzo[d]pyrazolo[1,5-a] [1,3]diazepine-3-carboxamide], for which the DC50 in test [1] is 9.23 nM. Moreover, in test [2], the IC50 worked out at 445 nM.

For `NC(=O)c1c(-c2ccc(Oc3ccccc3)cc2)nn2c1Nc1ccc(OCCC3CCN(c4ccc(N5CCC(=O)NC5=O)cc4)CC3)cc1CC2` [Example A24, 7-(2-(1-(4-(2,4-dioxotetrahydropyrimidin-1(2H)-yl)phenyl)piperidin-4-yl)ethoxy)-2-(4-phenoxyphenyl)-9,10-dihydro-4H-benzo[d]pyrazolo[1,5-a][1,3]diazepine-3-carboxamide], the DC50 in test [1] turned out to be 9.26 nM. Further, the IC50 in test [2] came to 235 nM.

`NC(=O)c1c(-c2ccc(Oc3ccccc3)cc2)nn2c1Nc1cc(OCCC3CCN(c4ccc(N5CCC(=O)NC5=O)cc4)CC3)ccc1CC2` [Example A25, 6-(2-(1-(4-(2,4-dioxotetrahydropyrimidin-1(2H)-yl)phenyl)piperidin-4-yl)ethoxy)-2-(4-phenoxyphenyl)-9,10-dihydro-4H-benzo[d]pyrazolo[1,5-a][1,3]diazepine-3-carboxamide]: half-maximal degradation in test [1] (DC50) was put at 24.9 nM. In addition, in test [2], the IC50 was above 10000 nM.

Compound `NC(=O)c1c(-c2ccc(Oc3ccccc3)cc2)nn2c1Nc1ccc(CCC3CCN(c4ccc(NC5CCC(=O)NC5=O)cc4)CC3)cc1CC2` (stereo not shown) [Example A26, 7-(2-(1-(4-((2,6-dioxopiperidin-3-yl)amino)phenyl)piperidin-4-yl)ethyl)-2-(4-phenoxyphenyl)-9,10-dihydro-4H-benzo[d]pyrazolo[1,5-a][1,3] diazepine-3-carboxamide] returned a DC50 in test [1] of 16 nM. The IC50 in test [2] is 283 nM.

In test [1], `NC(=O)c1c(-c2ccc(Oc3ccccc3)cc2)nn2c1Nc1cc(C3CCN(CC4CCN(c5ccc(N6CCC(=O)NC6=O)cc5)CC4)CC3)ccc1CC2` [Example A27, 6-(1-((1-(4-(2,4-dioxotetrahydropyrimidin-1(2H)-yl)phenyl)piperidin-4-yl)methyl)piperidin-4-yl)-2-(4-phenoxyphenyl)-9,10-dihydro-4H-benzo[d]pyrazolo[1,5-a][1,3]diazepine-3-carboxamide] showed a half-maximal degradation concentration (DC50) of 6.73 nM. In test [2], the IC50 is 317 nM.

`NC(=O)c1c(-c2ccc(Oc3ccccc3)cc2)nn2c1Nc1ccc(C3CCN(CCC4CCN(c5ccc(N6CCC(=O)NC6=O)cc5)CC4)CC3)cc1CC2` [Example A28, 7-(1-(2-(1-(4-(2,4-dioxotetrahydropyrimidin-1(2H)-yl)phenyl)piperidin-4-yl)ethyl)piperidin-4-yl)-2-(4-phenoxyphenyl)-9,10-dihydro-4H-benzo[d]pyrazolo[1,5-a][1,3]diazepine-3-carboxamide] had a DC50 in test [1] of 2.01 nM. The IC50 in test [2] is 81.1 nM.

Usually DC50 stands for the concentration giving 50% degradation. A low value points to a more potent degrader.
